According to patent US10370366B2 (Flatley Discovery Lab, LLC, priority 2013, dated 2019):

Biological target: T1, human F508del CFTR (Homo sapiens, UniProt P13569, DEL508-508)
T1 construct: expressed in transfected cells; host or cells: Fisher Rat Thyroid (FRT) cells
Assay: CFTR-YFP High Throughput Assay
Type: cell-based
Conditions: FRT cells expressing human F508del CFTR and YFP; for Emax: EMax normalized to the positive control, read-out: % Efficacy
Outline: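 FRT cells stably co-expressing human F508del CFTR and halide-sensitive YFP-H148Q/I152L; for correction, compound (2 nM-40 μM) incubated 24-26 h at 37° C, washed, then stimulated 60-120 min at RT with 20 μM forskolin plus 30 μM potentiator P3. Iodide-induced YFP quench (Ex 500/Em 540 nm) recorded; quench rates least-squares fitted.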

T1 sequence (P13569 with tags, fused parts or gaps DEL508-508): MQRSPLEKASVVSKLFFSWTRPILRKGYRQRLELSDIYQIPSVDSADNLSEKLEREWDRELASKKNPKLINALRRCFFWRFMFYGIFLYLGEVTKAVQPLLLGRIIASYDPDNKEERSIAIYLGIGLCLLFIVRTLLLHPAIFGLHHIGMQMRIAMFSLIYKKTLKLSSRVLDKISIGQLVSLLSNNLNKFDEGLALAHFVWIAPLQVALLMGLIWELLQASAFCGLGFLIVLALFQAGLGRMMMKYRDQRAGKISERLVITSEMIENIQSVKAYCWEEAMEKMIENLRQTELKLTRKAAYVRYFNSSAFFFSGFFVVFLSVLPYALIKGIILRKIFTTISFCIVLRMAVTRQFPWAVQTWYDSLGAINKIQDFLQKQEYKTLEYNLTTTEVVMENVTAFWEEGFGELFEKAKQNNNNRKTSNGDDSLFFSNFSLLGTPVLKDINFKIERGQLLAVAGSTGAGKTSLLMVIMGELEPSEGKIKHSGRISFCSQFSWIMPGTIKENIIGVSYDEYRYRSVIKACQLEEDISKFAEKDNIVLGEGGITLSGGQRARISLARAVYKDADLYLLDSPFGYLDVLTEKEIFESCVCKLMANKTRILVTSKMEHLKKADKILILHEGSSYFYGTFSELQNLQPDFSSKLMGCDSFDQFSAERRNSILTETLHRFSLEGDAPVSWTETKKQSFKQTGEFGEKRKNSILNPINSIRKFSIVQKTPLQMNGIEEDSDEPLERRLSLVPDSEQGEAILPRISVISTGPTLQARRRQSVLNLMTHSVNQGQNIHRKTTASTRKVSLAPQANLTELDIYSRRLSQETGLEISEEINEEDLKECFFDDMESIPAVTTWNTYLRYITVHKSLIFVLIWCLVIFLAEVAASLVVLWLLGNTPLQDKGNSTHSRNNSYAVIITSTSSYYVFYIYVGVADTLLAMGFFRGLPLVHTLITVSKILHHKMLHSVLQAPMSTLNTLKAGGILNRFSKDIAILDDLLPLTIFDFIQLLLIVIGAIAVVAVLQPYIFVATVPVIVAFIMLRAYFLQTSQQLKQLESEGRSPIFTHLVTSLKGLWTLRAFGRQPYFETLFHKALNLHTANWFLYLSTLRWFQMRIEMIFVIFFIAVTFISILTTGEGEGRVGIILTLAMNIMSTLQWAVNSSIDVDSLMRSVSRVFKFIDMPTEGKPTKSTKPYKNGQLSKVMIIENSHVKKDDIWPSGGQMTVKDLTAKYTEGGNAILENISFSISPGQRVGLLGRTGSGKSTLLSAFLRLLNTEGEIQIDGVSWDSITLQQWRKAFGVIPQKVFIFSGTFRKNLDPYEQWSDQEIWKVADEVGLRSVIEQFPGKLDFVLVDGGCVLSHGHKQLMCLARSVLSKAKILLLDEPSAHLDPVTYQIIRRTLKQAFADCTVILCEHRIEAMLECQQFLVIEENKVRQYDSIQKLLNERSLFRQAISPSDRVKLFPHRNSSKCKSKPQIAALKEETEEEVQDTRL

Emax [%]	EC50 [µM]	SMILES
30 to 80	< 10	CCN(C(=O)c1nn(-c2ccc(C(F)(F)F)cn2)c(=O)c2c1c1ccccc1n2C)c1ccccc1 [Example 193, N-ethyl-5-methyl-4-oxo-N-phenyl-3-(5-(trifluoromethyl)pyridin-2-yl)-4,5-dihydro-3H-pyridazino[4,5-b]indole-1-carboxamide]
> 80	< 10	COc1ccc2c(-c3cccc(Cl)c3)nn(CC(=O)C3(c4ccc5c(c4)OC(F)(F)O5)CC3)c(=O)c2c1 [Example 249, 4-(3-chlorophenyl)-2-(2-(1-(2,2-difluorobenzo[d][1,3]dioxol-5-yl)cyclopropyl)-2-oxoethyl)-7-methoxyphthalazin-1(2H)-one]
30 to 80		CCN(C(=O)Cn1nc(Cc2cccnc2)c2c(OC3CCCCC3)cccc2c1=O)c1ccc2c(c1)OC(F)(F)O2 [Example 60, 2-(5-(cyclohexyloxy)-1-oxo-4-(pyridin-3-ylmethyl)phthalazin-2(1H)-yl)-N-(2,2-difluorobenzo[d][1,3]dioxol-5-yl)-N-ethylacetamide]
> 80	< 10	COc1ccc2c(-c3cccc(C#N)c3)nn(CC(=O)C3(c4ccc5c(c4)OC(F)(F)O5)CC3)c(=O)c2c1 [Example 252, 3-(3-(2-(1-(2,2-difluorobenzo[d][1,3]dioxol-5-yl)cyclopropyl)-2-oxoethyl)-6-methoxy-4-oxo-3,4-dihydrophthalazin-1-yl)benzonitrile]
30 to 80	< 10	CCN(C(=O)Cn1ncc2c(c1=O)c1ccccc1n2Cc1ccc(C#N)cc1F)c1ccc2c(c1)OC(F)(F)O2 [Example 146, 2-(5-(4-cyano-2-fluorobenzyl)-1-oxo-1H-pyridazino[4,5-b]indol-2(5H)-yl)-N-(2,2-difluorobenzo[d][1,3]dioxol-5-yl)-N-ethylacetamide]
30 to 80	< 10	CCN(CC)C(=O)c1nn(CC(O)COCc2ccccc2)c(=O)c2c1c1c(F)cccc1n2C (stereo not shown) [Example 234, 3-(3-(benzyloxy)-2-hydroxypropyl)-N,N-diethyl-9-fluoro-5-methyl-4-oxo-4,5-dihydro-3H-pyridazino[4,5-b]indole-1-carboxamide]
30 to 80		Cc1ccc(-n2nc(C(=O)N3CCN(Cc4ccccc4)CC3)c3c4ccccc4n(C)c3c2=O)cc1 [Example 161, 1-(4-benzylpiperazine-1-carbonyl)-5-methyl-3-(p-tolyl)-3H-pyridazino[4,5-b]indol-4(5H)-one]
10 to 30		CCc1ccc(N(CC)C(=O)Cn2nc(Cc3cccnc3)c3cc(OC)c(OC)cc3c2=O)cc1 [Example 32, 2-(6,7-dimethoxy-1-oxo-4-(pyridin-3-ylmethyl)phthalazin-2(1H)-yl)-N-ethyl-N-(4-ethylphenyl)acetamide]
30 to 80		CCc1ccc(N(CC)C(=O)Cn2nc(-c3cccnc3)c3ccccc3c2=O)cc1 [Example 3, N-ethyl-N-(4-ethylphenyl)-2-(1-oxo-4-(pyridin-3-yl)phthalazin-2(1H)-yl)acetamide]
30 to 80		CCN(C(=O)Cn1ncc2c(c1=O)c1ccccc1n2Cc1ccccn1)c1ccc2c(c1)OC(F)(F)O2 [Example 131, N-(2,2-difluorobenzo[d][1, 3]dioxol-5-yl)-N-ethyl-2-(1-oxo-5-(pyridin-2-ylmethyl)-1H-pyridazino[4,5-b]indol-2(5H)-yl)acetamide]
30 to 80		CCN(C(=O)Cn1nc(-c2cccc(C#N)c2)c2ccc(OC)cc2c1=O)c1ccc(OC(F)F)cc1 [Example 74, 2-(4-(3-cyanophenyl)-7-methoxy-1-oxophthalazin-2(1H)-yl)-N-(4-(difluoromethoxy)phenyl)-N-ethylacetamide]
> 80		CCN(C(=O)Cn1nc(-c2ccc(S(N)(=O)=O)cc2)c2ccc(OC)cc2c1=O)c1ccc2c(c1)OC(F)(F)O2 [Example 72, N-(2,2-difluorobenzo[d][1,3]dioxol-5-yl)-N-ethyl-2-(7-methoxy-1-oxo-4-(4-sulfamoylphenyl)phthalazin-2(1H)-yl)-acetamide]
30 to 80		CCN(C(=O)c1nn(Cc2ccccc2)c(=O)c2c1c1ccccc1n2C)c1ccccc1 [Example 197, 3-benzyl-N-ethyl-5-methyl-4-oxo-N-phenyl-4,5-dihydro-3H-pyridazino[4,5-b]indole-1-carboxamide]
30 to 80	< 10	CCN(C(=O)c1nn(C[C@@H](O)COC)c(=O)c2c1c1ccccc1n2C)c1ccccc1 [Example 228, (R)-N-ethyl-3-(2-hydroxy-3-methoxypropyl)-5-methyl-4-oxo-N-phenyl-4,5-dihydro-3H-pyridazino[4,5-b]indole-1-carboxamide]
30 to 80		CCN(C(=O)c1nn(-c2nccs2)c(=O)c2c1c1ccccc1n2C)c1ccccc1 [Example 170, N-ethyl-5-methyl-4-oxo-N-phenyl-3-(thiazol-2-yl)-4,5-dihydro-3H-pyridazino[4,5-b]indole-1-carboxamide]
30 to 80		CCc1ccc(N(CC)C(=O)Cn2nc(Cc3cccnc3)c3ccc(C)cc3c2=O)cc1 [Example 28, N-ethyl-N-(4-ethylphenyl)-2-(7-methyl-1-oxo-4-(pyridin-3-ylmethyl)phthalazin-2(1H)-yl)acetamide]
> 80		COc1ccc2c(-c3cccc(C#N)c3)nn(CC(=O)N(c3ccc4c(c3)OC(F)(F)O4)C3CC3)c(=O)c2c1 [Example 79, 2-(4-(3-cyanophenyl)-7-methoxy-1-oxophthalazin-2(1H)-yl)-N-cyclopropyl-N-(2,2-difluorobenzo[d][1,3]dioxol-5-yl)acetamide]
30 to 80		Cc1ccc(-n2nc(C(=O)N(CC#N)c3ccccc3)c3c4ccccc4n(C)c3c2=O)cc1 [Example 154, N-(cyanomethyl)-5-methyl-4-oxo-N-phenyl-3-(p-tolyl)-4,5-dihydro-3H-pyridazino[4,5-b]indole-1-carboxamide]
> 80	< 10	CCOc1ccc2c(-c3cccc(C#N)c3)nn(CC(=O)N(C)c3ccc4nc(C)oc4c3)c(=O)c2c1 [Example 109, 2-(4-(3-cyanophenyl)-7-ethoxy-1-oxophthalazin-2(1H)-yl)-N-methyl-N-(2-methylbenzo[d]oxazol-6-yl)acetamide]
30 to 80		CCN(C(=O)Cn1nc(-c2ccc(C(N)=O)cc2)c2ccc(OC)cc2c1=O)c1ccc2c(c1)OC(F)(F)O2 [Example 82, 4-(3-(2-((2,2-difluorobenzo[d][1, 3]dioxol-5-yl)(ethyl)amino)-2-oxoethyl)-6-methoxy-4-oxo-3,4-dihydrophthalazin-1-yl)benzamide]
30 to 80		Cc1ccc(-n2nc(C(=O)N3CCCCC3)c3c4ccccc4n(C)c3c2=O)cc1 [Example 150, 5-methyl-1-(piperidine-1-carbonyl)-3-p-tolyl-3H-pyridazino [4,5-b]indol-4(5H)-one]
30 to 80		CCOc1cccc2c(Cc3cccnc3)nn(CC(=O)N(CC)c3ccc4c(c3)OC(F)(F)O4)c(=O)c12 [Example 57, N-(2,2-difluorobenzo[d][1,3]dioxol-5-yl)-N-ethyl-2-(8-ethoxy-1-oxo-4-(pyridin-3-ylmethyl)phthalazin-2(1H)-yl)acetamide]
30 to 80	10 to 20	CCN(C(=O)Cn1nc(Cc2cccnc2)c2cccc(OC3CCCCC3)c2c1=O)c1ccc2c(c1)OC(F)(F)O2 [Example 59, 2-(8-(cyclohexyloxy)-1-oxo-4-(pyridin-3-ylmethyl)phthalazin-2(1H)-yl)-N-(2,2-difluorobenzo[d][1,3]dioxol-5-yl)-N-ethylacetamide]
10 to 30	< 10	CC(C)N(C(=O)c1nn(-c2ccccn2)c(=O)c2c1c1ccccc1n2C)c1ccccc1 [Example 186, N-isopropyl-5-methyl-4-oxo-N-phenyl-3-(pyridin-2-yl)-4,5-dihydro-3H-pyridazino[4,5-b]indole-1-carboxamide]
30 to 80	< 10	Cn1c2ccccc2c2c(-c3cccc(C#N)c3)nn(C3CCCCC3)c(=O)c21 [Example 244, 3-(3-cyclohexyl-5-methyl-4-oxo-4,5-dihydro-3H-pyridazino[4,5-b]indol-1-yl)benzonitrile]
30 to 80	> 20	CC(C)n1nc(-c2ccccc2)c2c3ccccc3n(C)c2c1=O [Example 239, 3-isopropyl-5-methyl-1-phenyl-3,5-dihydro-4H-pyridazino[4,5-b]indol-4-one]
30 to 80		CCN(C(=O)Cn1nc(Cc2cccnc2)c2c(OC)cccc2c1=O)c1ccc2c(c1)OC(F)(F)O2 [Example 56, N-(2,2-difluorobenzo[d][1,3]dioxol-5-yl)-N-ethyl-2-(5-methoxy-1-oxo-4-(pyridin-3-ylmethyl)phthalazin-2(1H)-yl)acetamide]
10 to 30		CCc1ccc(N(CC)C(=O)Cn2nc(Cc3cccnc3)c3cnccc3c2=O)cc1 [Example 42, N-ethyl-N-(4-ethylphenyl)-2-(1-oxo-4-(pyridin-3-ylmethyl)pyrido[3,4-d]pyridazin-2(1H)-yl)acetamide]
30 to 80		CCN(C(=O)c1nn(-c2cccnc2)c(=O)c2c1c1ccccc1n2C)c1ccccc1 [Example 168]
> 80	< 10	CN(C(=O)Cn1nc(-c2cccc(C#N)c2)c2ccc(O)cc2c1=O)c1ccc2c(c1)OC(F)(F)O2 [Example 102, 2-(4-(3-cyanophenyl)-7-hydroxy-1-oxophthalazin-2(1H)-yl)-N-(2,2-difluorobenzo[d][1,3]dioxol-5-yl)-N-methylacetamide]

SMILES	Emax [%]	EC50 [µM]
Cc1nc2ccc(N(C)C(=O)Cn3nc(-c4cccc(Cl)c4)c4ccc(O)cc4c3=O)cc2o1 [Example 98, 2-(4-(3-chlorophenyl)-7-hydroxy-1-oxophthalazin-2(1H)-yl)-N-methyl-N-(2-methylbenzo[d]oxazol-6-yl)acetamide]		< 10
